Entries after “also recorded” stand apart in the source; their conditions may differ.
Columns and labels:
[1] = HIAC light obscuration test (USP 788), aggregate particle content; type: physicochemical; conditions: composition prepared as a liquid solution
Experimental: Light obscuration testing was performed for solution preparations prepared with some of the compositions described in the examples according to the method described in the United States Pharmacopeia (USP 788) using HIAC-3000 light obscuration detector. Particle content is denoted by the number of particles per milliliter of solution. The value is an average of two measurements. Samples were tested at 1 hour and at 20 hours.

[2] = Amounts of antibiotic components in the solution over time (reverse-phase LC/UV for β-lactams and β-lactamase inhibitors, HPLC/evaporation-light-scattering for aminoglycosides); type: physicochemical
Experimental: The amounts of β-lactam antibiotics and β-lactamase inhibitor were determined using C18 reverse-phase LC and UV-VIS detector (Tianjin […] Co., Ltd., analysis method No. HM-K-03). The content of aminoglycoside antibiotics was measured using reverse-phase HPLC and evaporation-light-scattering detector (Tianjin […] Co., Ltd., analysis method No. HM-K-08). […] The relative amount of each antibiotic component in the composition at each time point was expressed as peak area ratio with respect to the corresponding peak area of an external standard.

With `O=C(O)CN(CCN(CC(=O)O)CC(=O)O)CC(=O)O` [EDTA, ethylenediamine tetraacetic acid] the “Effect on aggregate particle formation in the solution preparations” value [1] was “significantly reduce aggregate particle formation; also recorded: effective in inhibiting formation of aggregate particles”.
With `CC1(C)[C@H](C(=O)O)N2C(=O)C[C@H]2S1(=O)=O` [Sulbactam sodium, sulbactam sodium] the “Amount of component, percentage of amount at initial time” value ([2]; Example 4 solution (cefoperazone sodium, sulbactam sodium, gentamicin, sodium citrate pH 6.75, no EDTA), room temperature, 0 h) was 101.4%, the “Amount of component, percentage of amount at initial time” value ([2]; Example 4 solution (cefoperazone sodium, sulbactam sodium, gentamicin, sodium citrate pH 6.75, no EDTA), room temperature, 1 h) was 101.4% and the “Amount of component, percentage of amount at initial time” value ([2]; Example 4 solution (cefoperazone sodium, sulbactam sodium, gentamicin, sodium citrate pH 6.75, no EDTA), room temperature, 2 h) was 101.5%. The “Amount of component, percentage of amount at initial time” value ([2]; Example 4 solution (cefoperazone sodium, sulbactam sodium, gentamicin, sodium citrate pH 6.75, no EDTA), room temperature, 4 h) was 109.7%, the “Amount of component, percentage of amount at initial time” value ([2]; Example 4 solution (cefoperazone sodium, sulbactam sodium, gentamicin, sodium citrate pH 6.75, no EDTA), room temperature, 6 h) was 103.2% and the “Amount of component, percentage of amount at initial time” value ([2]; Example 5 solution (cefoperazone sodium, sulbactam sodium, gentamicin, disodium EDTA, sodium citrate pH 6.75), room temperature, 0 h) was 101.4%. For the same compound, the “Amount of component, percentage of amount at initial time” value ([2]; Example 5 solution (cefoperazone sodium, sulbactam sodium, gentamicin, disodium EDTA, sodium citrate pH 6.75), room temperature, 1 h) was 101.4%, the “Amount of component, percentage of amount at initial time” value ([2]; Example 5 solution (cefoperazone sodium, sulbactam sodium, gentamicin, disodium EDTA, sodium citrate pH 6.75), room temperature, 2 h) was 101.5% and the “Amount of component, percentage of amount at initial time” value ([2]; Example 5 solution (cefoperazone sodium, sulbactam sodium, gentamicin, disodium EDTA, sodium citrate pH 6.75), room temperature, 4 h) was 109.7%. For the same compound, the “Amount of component, percentage of amount at initial time” value ([2]; Example 5 solution (cefoperazone sodium, sulbactam sodium, gentamicin, disodium EDTA, sodium citrate pH 6.75), room temperature, 6 h) was 103.2%, the “Amount of component, percentage of amount at initial time” value ([2]; Example 6 solution (cefoperazone sodium, sulbactam sodium, etimicin sulfate, disodium EDTA, sodium citrate pH 6.5), room temperature, 0 h) was 99.62% and the “Amount of component, percentage of amount at initial time” value ([2]; Example 6 solution (cefoperazone sodium, sulbactam sodium, etimicin sulfate, disodium EDTA, sodium citrate pH 6.5), room temperature, 1 h) was 100.4%. For the same compound, the “Amount of component, percentage of amount at initial time” value ([2]; Example 6 solution (cefoperazone sodium, sulbactam sodium, etimicin sulfate, disodium EDTA, sodium citrate pH 6.5), room temperature, 2 h) was 100.2%, the “Amount of component, percentage of amount at initial time” value ([2]; Example 6 solution (cefoperazone sodium, sulbactam sodium, etimicin sulfate, disodium EDTA, sodium citrate pH 6.5), room temperature, 4 h) was 100.2% and the “Amount of component, percentage of amount at initial time” value ([2]; Example 7 solution (ceftriaxone sodium, sulbactam sodium, etimicin sulfate, disodium EDTA, sodium citrate pH 6.5), room temperature, 0 h) was 96.84%. For the same compound, the “Amount of component, percentage of amount at initial time” value ([2]; Example 7 solution (ceftriaxone sodium, sulbactam sodium, etimicin sulfate, disodium EDTA, sodium citrate pH 6.5), room temperature, 1 h) was 94.43%, the “Amount of component, percentage of amount at initial time” value ([2]; Example 7 solution (ceftriaxone sodium, sulbactam sodium, etimicin sulfate, disodium EDTA, sodium citrate pH 6.5), room temperature, 2 h) was 93.35% and the “Amount of component, percentage of amount at initial time” value ([2]; Example 7 solution (ceftriaxone sodium, sulbactam sodium, etimicin sulfate, disodium EDTA, sodium citrate pH 6.5), room temperature, 4 h) was 93.23%. For the same compound, the “Amount of component, percentage of amount at initial time” value ([2]; Example 7 solution (ceftriaxone sodium, sulbactam sodium, etimicin sulfate, disodium EDTA, sodium citrate pH 6.5), room temperature, 6 h) was 92.13%, the “Amount of component, percentage of amount at initial time” value ([2]; Example 7 solution (ceftriaxone sodium, sulbactam sodium, etimicin sulfate, disodium EDTA, sodium citrate pH 6.5), room temperature, 8 h) was 93.38% and the “Amount of component, percentage of amount at initial time” value ([2]; Example 10: piperacillin sodium/sulbactam sodium solution cryopreserved 7 days, thawed, pH 6.0, etimicin sulfate added, no EDTA, 0 h) was 94.1%. The “Amount of component, percentage of amount at initial time” value ([2]; Example 10: piperacillin sodium/sulbactam sodium solution cryopreserved 7 days, thawed, pH 6.0, etimicin sulfate added, no EDTA, 1 h) was 97.4%, the “Amount of component, percentage of amount at initial time” value ([2]; Example 10: piperacillin sodium/sulbactam sodium solution cryopreserved 7 days, thawed, pH 6.0, etimicin sulfate added, no EDTA, 2 h) was 96.4% and the “Amount of component, percentage of amount at initial time” value ([2]; Example 10: piperacillin sodium/sulbactam sodium solution cryopreserved 7 days, thawed, pH 6.0, etimicin sulfate added, no EDTA, 4 h) was 97.7%. For the same compound, the “Amount of component, percentage of amount at initial time” value ([2]; Example 10: piperacillin sodium/sulbactam sodium solution cryopreserved 7 days, thawed, pH 6.0, etimicin sulfate added, no EDTA, 6 h) was 96.9% and the “Amount of component, percentage of amount at initial time” value ([2]; Example 10: piperacillin sodium/sulbactam sodium solution cryopreserved 7 days, thawed, pH 6.0, etimicin sulfate added, no EDTA, 8 h) was 97.1%.

— patent publication US20090156517A1, “STABLE PHARMACEUTICAL COMPOSITIONS OF AMINOGLYCOSIDE ANTIBIOTICS, ION-CHELATING AGENTS, AND BUFFERS” (priority 2006, published 2009)
